This note sets out measurements from PMC8306828 (International Journal of Molecular Sciences, 2021).

Molecules are shown by their SMILES.

This experiment addresses T1, human topoisomerase I (Homo sapiens, UniProt P11387).
T1 construct: purchased TopoGen, Buena Vista, CO, USA
T1 sequence (P11387 1-765): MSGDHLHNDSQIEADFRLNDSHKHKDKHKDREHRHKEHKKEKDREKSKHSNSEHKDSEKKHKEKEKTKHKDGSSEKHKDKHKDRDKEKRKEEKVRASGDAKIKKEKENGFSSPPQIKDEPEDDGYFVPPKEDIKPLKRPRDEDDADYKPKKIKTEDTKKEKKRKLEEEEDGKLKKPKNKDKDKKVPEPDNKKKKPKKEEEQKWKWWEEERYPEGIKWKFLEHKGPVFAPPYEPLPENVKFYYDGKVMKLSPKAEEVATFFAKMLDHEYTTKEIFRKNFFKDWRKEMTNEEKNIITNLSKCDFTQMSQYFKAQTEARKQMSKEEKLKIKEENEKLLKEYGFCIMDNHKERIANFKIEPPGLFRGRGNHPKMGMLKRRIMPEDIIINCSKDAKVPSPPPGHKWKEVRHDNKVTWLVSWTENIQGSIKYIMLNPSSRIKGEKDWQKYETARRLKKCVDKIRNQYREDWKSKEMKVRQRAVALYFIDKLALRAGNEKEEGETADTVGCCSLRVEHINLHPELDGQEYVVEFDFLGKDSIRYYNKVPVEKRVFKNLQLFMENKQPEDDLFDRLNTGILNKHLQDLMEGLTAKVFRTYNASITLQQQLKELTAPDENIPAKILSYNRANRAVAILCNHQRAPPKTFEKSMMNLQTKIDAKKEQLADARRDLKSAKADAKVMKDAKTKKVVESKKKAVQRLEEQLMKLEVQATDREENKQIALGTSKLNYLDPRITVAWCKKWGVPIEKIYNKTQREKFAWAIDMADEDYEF
The experiment can be described thus: Topoisomerase I drug screening (plasmid based), gel electrophoresis. The format is biochemical. Conditions: scDNA + topo1; tested compounds 10-20 µM, camptothecin 100 µM.

Protocol: The test procedure was carried out according to the manufacturer′s instructions (Topoisomerase I Drug Screening Kit(plasmid based) TopoGen/Topoisomerase II Drug Screening Kit (plasmid based) (TopoGen, Buena Vista, CO, USA). A reaction mixture with appropriate concentrations of water and buffer and 1–0.5 mL of DNA (plasmid) was prepared. Then, the tested compounds dissolved in DMSO were added. A solvent control test was also performed. Finally, an enzyme in the indicated amount was added to the mixture. The whole was incubated at 37 °C for 30 min. Then, the reaction was stopped by adding 2 μL of detergent-SDS (sodium dodecyl sulfate). Proteinase K solution (50 μg/mL) was then added and incubated at 37 °C for 15 min. After that time, a loading buffer (bromophenol blue and glycerol) was added to the samples and then applied to a 1% agarose gel. Electrophoresis was carried out in TAE (Tris Acetate-EDTA) buffer, which was obtained by mixing 40 mM Tris Acetate, 1 mM EDTA, and diluting with water. It was carried out for 4–5 h at 2 V/cm. For the Topo I assay, two types of gel were prepared: non-EB (Figure 8A) and EB gel (Figure 8B). Non-EB gels were stained with EB (0.5 ug/mL) for 15–30 min and then destained in water or buffer for 15 min prior to photodocumentation. […]

In the case of `CC[C@@]1(O)C(=O)OCc2c1cc1n(c2=O)Cc2cc3ccccc3nc2-1` [camptothecin], the “inhibition of topoisomerase I / DNA band pattern” value is reported as “presence of open circular DNA”.
